Data from patent US12116343B2, “Inhibitors of APOL1 and methods of using same” (Vertex Pharmaceuticals Incorporated, priority 2020, dated 2024).

target: T1, APOL1 G1 Protein (Homo sapiens, UniProt O14791, I384M/S342G); test: Trypanosoma brucei brucei lysis assay using APOL1 recombinant protein (AlamarBlue viability); type: cell-based; conditions: Trypanosoma brucei brucei lysis, recombinant APOL1, AlamarBlue; read-out: Trypanosoma Assay (IC50)
T1 sequence (O14791 28-398 S342G/I384M): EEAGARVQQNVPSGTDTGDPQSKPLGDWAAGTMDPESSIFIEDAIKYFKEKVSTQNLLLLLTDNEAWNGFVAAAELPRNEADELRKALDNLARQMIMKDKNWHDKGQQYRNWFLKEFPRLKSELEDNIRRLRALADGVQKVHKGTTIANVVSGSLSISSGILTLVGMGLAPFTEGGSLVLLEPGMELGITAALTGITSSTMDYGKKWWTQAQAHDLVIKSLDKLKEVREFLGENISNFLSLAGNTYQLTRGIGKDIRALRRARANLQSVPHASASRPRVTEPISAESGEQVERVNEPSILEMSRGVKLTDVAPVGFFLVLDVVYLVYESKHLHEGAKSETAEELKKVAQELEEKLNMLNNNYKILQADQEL
Text: Trypanosoma brucei brucei is a blood stream parasite to which human, gorillas and baboon are immune due to the presence of the APOL1 protein in their HDL particles. The protein is uptaken by the parasite via the TbHpHb receptor located in its flagellar pocket and is bonded by the Hpr protein contained in the HDL particles which triggers the receptor endocytosis by the parasite.
Following endocytosis, the formed vesicle containing the HDL particle matures from early to late endosome, and subsequently to lysosome. The concomitant pH change in the lumen of the vesicle triggers the insertion of the APOL1 protein into the membrane of the late endosome/lysosome and hereby triggers lysosomal membrane premeabilisation and as a further downstream event, trypanosome lysis. Trypanosoma brucei brucei is sensitive to lysis by all three APOL1 variants (G0, G1, and G2).
The Trypanosoma brucei brucei lysis assay is a lysis assay of the parasite using recombinant APOL1 protein variant followed by a fluorescent detection method of viability by the addition of AlamarBlue reagent to the assay well, a general metabolic redox indicator (AlamarBlue assay).
Briefly, the AlamarBlue active compound, the resazurin, a blue, water soluble, non-toxic and cell permeable molecule, which can be followed by absorbance, is reduced by various metabolic pathways into resorufin, a red compound which can be followed by either absorbance or fluorescence. The assay allows the calculation of the percent viability (percent of living Trypanosomes remaining in each well) at the end of a lysis relative to the untreated condition by interpolation of fluorescent values (FLU) on a standard curve with a known amount of seeded trypanosome/well.
Trypanosoma brucei brucei (ATCC, Cat. No. PRA-382) • Lister 427 VSG 221 bloodstream form.
Thaw/Expansion Media (ATCC Medium 2834 Modified HMI-9 Medium)
Assay Media (No Phenol Red/No FBS): Make on Day of Use
Hypoxanthine Stock (100×)-9 (10×)
Equipment • El-Clip Tip pipette 12 channel adjustable 2-125 μL, Cat. No. 4672070BT • ThermoFisher MultiDrop 384, Cat. No. 5840300 • Multidrop • Agilent Bravo, Cat. No. G5409A • Bravo • SpectraMax M5
Assay Ready Plates (ARPs) • ARPs comes in two formats: • […] final top concentration with a 2.5 fold dilution down. • […] final top concentration with a 3 fold dilution down. • Both have a 10 point Dose response. • 0.1% DMSO final in the Black Assay Plate. • Compounds are diluted 1000 fold in the Black Assay Plate. • Each plate is designed for 14 compounds in duplicate. • In the final Black Assay Plate:
Trypanosoma brucei brucei Culture
Step 2, Day 4 • Centrifuge at 800×g for 5 minutes at room temperature. • Resuspend in 1 mL media. • Make a 1:25 fold dilution (10 μL/240 μL media). • Count on a hemocytometer (after adding parasites). • Let sit for 1-2 minutes for the parasites to settle. • Count should be approximately 100 viable motile parasites/16 grid or approximately 25×10^6 parasites/flask. • Passage the parasites by adding 1×10^6 parasites/T75 flask in 20 mL media. • Passage the parasites by adding 2.33×10^6 parasites/T175 flask in 46.6 mL media. • For every T75 flask should make enough for approximately 1.5×384 well assay plates. • For every T175 flask should make enough for approximately 3.8×384 well assay plates.
Step 3, Day 6 • Centrifuge at 800×g for 5 minutes. • Resuspend in 3 mL assay media (No phenol red, no FBS) per 75 starting flask. • Resuspend in 7 mL assay media (No phenol red, no FBS) per 175 flask • Make a 1:25 fold dilution. • Count by hemocytometer. • Every T75 flask set up should have approximately 75×10^6 parasites/flask (verify doubling time=8.7 hrs±1 hr). • Every T175 flask set up should have approximately 175×10^6 parasites/flask (verify doubling time=8.7 hrs±1 hr). • Require 46×10^6 parasites per 384 well plate (at 120,000 parasites per well). Protocol B […]

`O=C([C@H]1C[C@H](c2c(-c3ccc(F)cc3)[nH]c3c(F)cc(F)cc32)C1)N1CCC(CO)(CO)CC1` [Compound 108] and `O=C([C@H]1C[C@H](c2c(-c3ccc(F)cc3)[nH]c3c(F)cc(F)cc32)C1)N1CCC(CCO)CC1` [Compound 134] cannot be ordered by IC50: > 1000 nM for the first, > 1000 nM for the second.

First: CC(O)CN(CCO)C(=O)[C@H]1C[C@H](c2c(-c3ccc(F)cc3)[nH]c3c(F)cc(F)cc32)C1 (mixture of isomers) [Compound 129]
Second: C[C@@H](O)[C@H](CO)NC(=O)[C@H]1C[C@H](c2c(-c3ccc(F)cc3)[nH]c3c(F)cc(F)cc32)C1 [Compound 155]
The IC50 of the first is lower: < 250 nM for the first, 250 to 1000 nM for the second.

Compared with `CC(O)C1CCCN(C(=O)[C@H]2C[C@H](c3c(-c4ccc(F)cc4)[nH]c4c(F)cc(F)cc43)C2)C1` (some centres unmarked) [Compound 131], `O=C([C@H]1C[C@H](c2c(-c3ccc(F)cc3)[nH]c3c(F)cc(F)cc32)C1)N1CCCC(O)C1` (some centres unmarked) [Compound 150] is lower in IC50: > 1000 nM for the first, 250 to 1000 nM for the second. The second is the more potent here.

`O=C(NCC1(O)CCC1)[C@H]1C[C@H](c2c(-c3ccc(F)cc3)[nH]c3c(F)cc(F)cc32)C1` [Compound 143] and `O=C(O)CNC(=O)[C@H]1C[C@H](c2c(-c3ccc(F)cc3)[nH]c3c(F)cc(F)cc32)C1` [Compound 10] cannot be ordered by IC50: > 1000 nM for the first, > 1000 nM for the second.

`NC(=O)C1CCN(C(=O)[C@H]2C[C@H](c3c(-c4ccc(F)cc4)[nH]c4c(F)cc(F)cc43)C2)CC1` [Compound 133] and `NC(=O)[C@H]1CCN(C(=O)[C@H]2C[C@H](c3c(-c4ccc(F)cc4)[nH]c4c(F)cc(F)cc43)C2)C1` [Compound 154] cannot be ordered by IC50: > 1000 nM for the first, > 1000 nM for the second.

`NC(=O)[C@H]1C[C@H](c2c(-c3ccc(F)cc3)[nH]c3c(F)cc(F)cc32)C1` [Compound 169] and `CC(C)(NC(=O)[C@H]1C[C@H](c2c(-c3ccc(F)cc3)[nH]c3c(F)cc(F)cc32)C1)C(N)=O` [Compound 11] cannot be ordered by IC50: < 250 nM for the first, < 250 nM for the second.

`O=C([C@H]1C[C@H](c2c(-c3ccc(F)cc3)[nH]c3c(F)cc(F)cc32)C1)N1CCCC[C@@H]1CO` [Compound 107] and `O=C([C@H]1C[C@H](c2c(-c3ccc(F)cc3)[nH]c3c(F)cc(F)cc32)C1)N1CCCC[C@H]1CO` [Compound 146] fall in the same range of IC50: 250 to 1000 nM for the first, 250 to 1000 nM for the second.

`CC(C)[C@@H](CO)NC(=O)[C@H]1C[C@H](c2c(-c3ccc(F)cc3)[nH]c3c(F)cc(F)cc32)C1` [Compound 141] and `NC(=O)[C@H](CO)NC(=O)[C@H]1C[C@H](c2c(-c3ccc(F)cc3)[nH]c3c(F)cc(F)cc32)C1` [Compound 144] fall in the same range of IC50: 250 to 1000 nM for the first, 250 to 1000 nM for the second.

Compared with `O=C1CC[C@@H](NC(=O)[C@H]2C[C@H](c3c(-c4ccc(F)cc4)[nH]c4c(F)cc(F)cc43)C2)C1` [Compound 157], `O=C1CC[C@H](NC(=O)[C@H]2C[C@H](c3c(-c4ccc(F)cc4)[nH]c4c(F)cc(F)cc43)C2)C1` [Compound 139] is lower in IC50: > 1000 nM for the first, 250 to 1000 nM for the second. The second is the more potent here.

`O=C([C@H]1C[C@H](c2c(-c3ccc(F)cc3)[nH]c3c(F)cc(F)cc32)C1)N1C[C@@H]2[C@@H](CO)[C@@H]2C1` [Compound 99] and `O=C([C@H]1C[C@H](c2c(-c3ccc(F)cc3)[nH]c3c(F)cc(F)cc32)C1)N1CC[C@H](CO)C1` [Compound 140] cannot be ordered by IC50: > 1000 nM for the first, > 1000 nM for the second.

`O=C(NCc1cnco1)[C@H]1C[C@H](c2c(-c3ccc(F)cc3)[nH]c3c(F)cc(F)cc32)C1` [Compound 170] and `O=C(NCc1cocn1)[C@H]1C[C@H](c2c(-c3ccc(F)cc3)[nH]c3c(F)cc(F)cc32)C1` [Compound 168] cannot be ordered by IC50: < 250 nM for the first, < 250 nM for the second.

Compared with `O=C([C@H]1C[C@H](c2c(-c3ccc(F)cc3)[nH]c3c(F)cc(F)cc32)C1)N1CC(n2cccn2)C1` [Compound 96], `O=C([C@H]1C[C@H](c2c(-c3ccc(F)cc3)[nH]c3c(F)cc(F)cc32)C1)N1CCC[C@H](O)C1` [Compound 105] is lower in IC50: > 1000 nM for the first, 250 to 1000 nM for the second. The second is the more potent here.

`CCC1(O)CN(C(=O)[C@H]2C[C@H](c3c(-c4ccc(F)cc4)[nH]c4c(F)cc(F)cc43)C2)C1` [Compound 112] and `CC1(C)CN(C(=O)[C@H]2C[C@H](c3c(-c4ccc(F)cc4)[nH]c4c(F)cc(F)cc43)C2)CC1O` (some centres unmarked) [Compound 102] cannot be ordered by IC50: > 1000 nM for the first, > 1000 nM for the second.

`O=C([C@H]1C[C@H](c2c(-c3ccc(F)cc3)[nH]c3c(F)cc(F)cc32)C1)N1CC[C@H](CO)[C@H](O)C1` [Compound 100] and `O=C([C@H]1C[C@H](c2c(-c3ccc(F)cc3)[nH]c3c(F)cc(F)cc32)C1)N1CCC[C@@H](CO)C1` [Compound 109] cannot be ordered by IC50: > 1000 nM for the first, > 1000 nM for the second.

First: O=C([C@H]1C[C@H](c2c(-c3ccc(F)cc3)[nH]c3c(F)cc(F)cc32)C1)N1CCCC1CCO (some centres unmarked) [Compound 101]
Second: O=C([C@H]1C[C@H](c2c(-c3ccc(F)cc3)[nH]c3c(F)cc(F)cc32)C1)N1CCCC[C@@H]1CCO [Compound 156]
The IC50 of the first is lower: 250 to 1000 nM for the first, > 1000 nM for the second. The first is the more potent here.

`O=C(NCCOCCO)[C@H]1C[C@H](c2c(-c3ccc(F)cc3)[nH]c3c(F)cc(F)cc32)C1` [Compound 125] and `O=C(NCCCO)[C@H]1C[C@H](c2c(-c3ccc(F)cc3)[nH]c3c(F)cc(F)cc32)C1` [Compound 104] cannot be ordered by IC50: < 250 nM for the first, < 250 nM for the second.

`O=C(N[C@H](CO)C(F)(F)F)[C@H]1C[C@H](c2c(-c3ccc(F)cc3)[nH]c3c(F)cc(F)cc32)C1` [Compound 164] and `O=C(N[C@@H](CO)C(F)(F)F)[C@H]1C[C@H](c2c(-c3ccc(F)cc3)[nH]c3c(F)cc(F)cc32)C1` [Compound 163] cannot be ordered by IC50: < 250 nM for the first, < 250 nM for the second.

`O=C([C@H]1C[C@H](c2c(-c3ccc(F)cc3)[nH]c3c(F)cc(F)cc32)C1)N1CC(O)C(N2CCOCC2)C1` (some centres unmarked) [Compound 106] and `O=C([C@H]1C[C@H](c2c(-c3ccc(F)cc3)[nH]c3c(F)cc(F)cc32)C1)N1CCO[C@H](CO)C1` [Compound 118] cannot be ordered by IC50: > 1000 nM for the first, > 1000 nM for the second.

`CC1(C)CN(C(=O)[C@H]2C[C@H](c3c(-c4ccc(F)cc4)[nH]c4c(F)cc(F)cc43)C2)CCC1O` (some centres unmarked) [Compound 114] and `CO[C@H]1CCN(C(=O)[C@H]2C[C@H](c3c(-c4ccc(F)cc4)[nH]c4c(F)cc(F)cc43)C2)C1` [Compound 95] cannot be ordered by IC50: > 1000 nM for the first, > 1000 nM for the second.

Compared with `O=C([C@H]1C[C@H](c2c(-c3ccc(F)cc3)[nH]c3c(F)cc(F)cc32)C1)N1CCN[C@H](CO)C1` [Compound 161], `O=C([C@H]1C[C@H](c2c(-c3ccc(F)cc3)[nH]c3c(F)cc(F)cc32)C1)N1CCCC(CO)C1` (some centres unmarked) [Compound 147] is higher in IC50: 250 to 1000 nM for the first, > 1000 nM for the second. The first is the more potent here.

First: CN(CC1(CO)CCOCC1)C(=O)[C@H]1C[C@H](c2c(-c3ccc(F)cc3)[nH]c3c(F)cc(F)cc32)C1 [Compound 120]
Second: CNC(=O)C(C)NC(=O)[C@H]1C[C@H](c2c(-c3ccc(F)cc3)[nH]c3c(F)cc(F)cc32)C1 (mixture of isomers) [Compound 9]
The IC50 of the first is higher: > 1000 nM for the first, 250 to 1000 nM for the second.

Compared with `CC1(C)CN(C(=O)[C@H]2C[C@H](c3c(-c4ccc(F)cc4)[nH]c4c(F)cc(F)cc43)C2)CCN1C(=O)[C@H]1C[C@@](C)(O)C1` [Compound 130], `O=C1C[C@H](NC(=O)[C@H]2C[C@H](c3c(-c4ccc(F)cc4)[nH]c4c(F)cc(F)cc43)C2)C(=O)N1` [Compound 165] is lower in IC50: > 1000 nM for the first, < 250 nM for the second.
